Holding throughout (type): functional
For experiment [1], the system named is Mus musculus. In words: Psychotropic Effect evaluated by Mouse Ring Test at a dose of 0.1 mg/kg.
Experiment [2] concerns Mus musculus. In words: Psychotropic Effect evaluated by Mouse Ring Test at a dose of 10 mg/kg.
In experiment [3] the test system is Mus musculus. In words: Psychotropic Effect evaluated by Mouse Ring Test at a dose of 1 mg/kg.
Experiment [4] relates to Mus musculus. In words: Psychotropic Effect evaluated by Mouse Ring Test at a dose of 20 mg/kg.
In experiment [5] the test system is Columba livia. In words: Effective Dose when administered at a dose of 0.78 mg/kg in pigeons. Particulars: in Columbidae.
The subject of experiment [6] is Columba livia. In words: Effective Dose when administered in pigeons. The conditions noted are these: in Columbidae.
Experiment [7] concerns Rattus norvegicus. In words: Effective Dose when administered at a dose of 0.94 mg/kg in rats.
In experiment [8] the test system is Columba livia. In words: Effective Dose when administered at a dose of 0.99 mg/kg in pigeons. The conditions noted are these: in Columbidae.
Experiment [9] concerns Rattus norvegicus. In words: Effective Dose when administered at a dose of 0.98 mg/kg in rats.

The term ED50 denotes the dose at which the effect has come halfway, by size or by number of responders. Low values mean an effect at a small dose, high ones a need for a large dose. Regarding `C=C1[C@H]2Oc3cc(C(C)(C)CCCCCC)cc(O)c3[C@H]2[C@H]2C[C@@H]1C2(C)C`, the “Psychotropic Effect” value in experiment [1] is 10; in experiment [2], 28.1; in experiment [3] it was 20; in experiment [4], 43.2. The same compound showed an ED50 in [5] of 3.57 mg/kg.

As for `CCCCCc1cc(O)c2c(c1)OC(C)(C)[C@@H]1CC=C(C)C[C@@H]21` [DELTA-8-TETRAHYDROCANNABINOL], the “Psychotropic Effect” value in experiment [1] is reported as 13.2; in experiment [2], 41.3; in experiment [3] it was 20.9.

`CCCCCc1cc(O)c2c(c1)OC(C)(C)[C@@H]1CCC(C)=C[C@@H]21` [DRONABINOL]: the ED50 worked out at 0.18 mg/kg in experiment [6] and 0.66 mg/kg in experiment [7].

For the compound `C=C1[C@H]2Oc3cc(C(C)(C)CCCCCC)cc(O)c3[C@H]2[C@@H]2C[C@H]1C2(C)C`, the “Psychotropic Effect” value came to 13.2 in [1], 66.1 in [2], 42 in [3] and 89.2 in experiment [4]. Further, the 50% effective dose (ED50) in experiment [8] was determined as 0.17 mg/kg; in experiment [9], 0.72 mg/kg.
